The values below come from US20030109567A1, “Novel angiogenesis inhibitor” (RIKEN, priority 2001, published 2003).

A short description of this series: Solubility (physicochemical properties). The procedure: The syrup was dissolved in chloroform 10 ml and applied to a silica gel column charged with chloroform (4 cm diameter, 60 cm length). Initially, elution was performed with chloroform 500 ml, then with each 500 ml of a chloroform/methanol solution having a successively changed mixing ratio (100:0, 100:2, 50:1, 20:1, 10:1, 5:1, 1:1). The compound of the present invention, RKB-3134A, was eluted in a fraction with the chloroform/methanol solution (50:1). The fraction was concentrated under reduced pressure to give a brown syrup 1.4 g. Then, the brown syrup 1.4 g was dissolved in a methanol/acetonitrile solution (1:1, 14 ml) and made into aliquots, and purified by high performance liquid chromatography (acetonitrile : water=2:8→acetonitrile : water=1:1; linear gradient (30 minutes), flow rate 9.0 ml/min) using a reverse phase ODS column (2 cm diameter, 25 cm length, PEGASIL ODS, Senshu Kagaku Co.) to give RKB-3134A. Recrystallization was further carried out from a mixed solvent of hexane/ethyl acetate/methanol to give a pure RKB-3134A (90 mg) as pale yellow powder. Physicochemical properties of RKB-3134A are shown below.
Insoluble in n-hexane or water.

Regarding `CC/C=C/C=C/C1=C(C)C(=O)C2(O1)C(=O)NC(O)(Cc1ccccc1)C2O` (centres unmarked) [RKB-3134A], where the note is “solvent: methanol, acetone, or dimethyl sulfoxide”, the “Solubility in methanol, acetone, or dimethyl sulfoxide” value is “easily soluble”. Further, the “Solubility in n-hexane or water” value (solvent: n-hexane or water) was “Insoluble”.
